# Like-named read-outs stand apart in the source and are kept apart here.
# Assays:
# [1] = test system: CYP2D6; settings: CYP2D6-inhibited mice (paroxetine 30 mg/kg i.p. 60 min before), i.v.
# Protocol: (§1) ^125I-ODV was prepared to a radioactive concentration of 30 MBq/mL by the addition of saline. For metabolite analysis in CYP-inhibited mice, we produced model mice with reduced CYP3A4 or CYP2D6 activity by selective inhibition using ketoconazole or paroxetine. CYP3A4-inhibited mice were injected intraperitoneally with 50 mg/kg of ketoconazole at 60 min before injection of ^125I-ODV, and CYP2D6-inhibited mice were injected intraperitoneally with 30 mg/kg of paroxetine at 60 min before injection of ^125I-ODV. Each of three mice was administered ^125I-ODV via the tail vein (3.0 MBq/100 µL/mouse). At 30 min, the three fasted mice were euthanized under isoflurane, and each gallbladder was collected. The radioactive products in bile were analyzed by TLC using methanol/acetate at a ratio of 100:1. Bile was directly spotted onto a TLC plate.
# (§2) To examine the biological distribution in CYP-inhibited mice, we produced model mice in the same way as for the analysis of metabolism in bile. At 5, 15, 30, and 60 min after ^125I-ODV injection, mice were euthanized under isoflurane (n = 4), and the same tissues were collected and quantified.
# [2] = test system: CYP3A4; settings: CYP3A4-inhibited mice (ketoconazole 50 mg/kg i.p. 60 min before), i.v.
# Protocol: as §1, §2
# [3] = Protocol: as §1
# [4] = normal and CYP-inhibited mice, TLC of bile
compound,measurement,setting,value
"CN(C)CC(c1ccc(O)c([125I])c1)C1(O)CCCCC1 (stereo not shown) [^125I-ODV, iodine-125-labeled O-desmethylvenlafaxine]","Biological distribution, Blood",[1]; 5 min,1.83 %ID/g
same,"Biological distribution, Brain",[1]; 5 min,0.79 %ID/g
same,"Biological distribution, Gallbladder",[1]; 5 min,1.59 %ID/g
same,"Biological distribution, Heart",[1]; 5 min,5.19 %ID/g
same,"Biological distribution, Kidney",[1]; 5 min,19.94 %ID/g
same,"Biological distribution, Large intestines",[1]; 5 min,1.12 %ID/organ
same,"Biological distribution, Liver",[1]; 5 min,7.19 %ID/g
same,"Biological distribution, Lung",[1]; 5 min,22.13 %ID/g
same,"Biological distribution, Pancreas",[1]; 5 min,6.02 %ID/g
same,"Biological distribution, Small intestines",[1]; 5 min,7.24 %ID/organ
same,"Biological distribution, Spleen",[1]; 5 min,4.62 %ID/g
same,"Biological distribution, Stomach",[1]; 5 min,1.77 %ID/organ
same,"Biological distribution, Thyroid",[1]; 5 min,0.05 %ID/organ
same,"Biological distribution, Urine",[1]; 5 min,0.33 %ID/organ
same,"Biological distribution, Blood",[1]; 15 min,1.59 %ID/g
same,"Biological distribution, Brain",[1]; 15 min,0.82 %ID/g
same,"Biological distribution, Gallbladder",[1]; 15 min,10.66 %ID/g
same,"Biological distribution, Heart",[1]; 15 min,2.87 %ID/g
same,"Biological distribution, Kidney",[1]; 15 min,17.13 %ID/g
same,"Biological distribution, Large intestines",[1]; 15 min,0.93 %ID/organ
same,"Biological distribution, Liver",[1]; 15 min,5.56 %ID/g
same,"Biological distribution, Lung",[1]; 15 min,11.96 %ID/g
same,"Biological distribution, Pancreas",[1]; 15 min,5.71 %ID/g
same,"Biological distribution, Small intestines",[1]; 15 min,5.64 %ID/organ
same,"Biological distribution, Spleen",[1]; 15 min,4.97 %ID/g
same,"Biological distribution, Stomach",[1]; 15 min,2.40 %ID/organ
same,"Biological distribution, Thyroid",[1]; 15 min,0.04 %ID/organ
same,"Biological distribution, Urine",[1]; 15 min,6.18 %ID/organ
same,"Biological distribution, Blood",[1]; 30 min,1.12 %ID/g
same,"Biological distribution, Brain",[1]; 30 min,0.71 %ID/g
same,"Biological distribution, Gallbladder",[1]; 30 min,21.66 %ID/g
same,"Biological distribution, Heart",[1]; 30 min,1.47 %ID/g
same,"Biological distribution, Kidney",[1]; 30 min,15.90 %ID/g
same,"Biological distribution, Large intestines",[1]; 30 min,0.74 %ID/organ
same,"Biological distribution, Liver",[1]; 30 min,5.08 %ID/g
same,"Biological distribution, Lung",[1]; 30 min,7.77 %ID/g
same,"Biological distribution, Pancreas",[1]; 30 min,3.94 %ID/g
same,"Biological distribution, Small intestines",[1]; 30 min,10.30 %ID/organ
same,"Biological distribution, Spleen",[1]; 30 min,2.88 %ID/g
same,"Biological distribution, Stomach",[1]; 30 min,3.20 %ID/organ
same,"Biological distribution, Thyroid",[1]; 30 min,0.05 %ID/organ
same,"Biological distribution, Urine",[1]; 30 min,22.96 %ID/organ
same,"Biological distribution, Blood",[1]; 60 min,0.67 %ID/g
same,"Biological distribution, Brain",[1]; 60 min,0.58 %ID/g
same,"Biological distribution, Gallbladder",[1]; 60 min,26.70 %ID/g
same,"Biological distribution, Heart",[1]; 60 min,0.62 %ID/g
same,"Biological distribution, Kidney",[1]; 60 min,8.33 %ID/g
same,"Biological distribution, Large intestines",[1]; 60 min,0.67 %ID/organ
same,"Biological distribution, Liver",[1]; 60 min,1.75 %ID/g
same,"Biological distribution, Lung",[1]; 60 min,3.15 %ID/g
same,"Biological distribution, Pancreas",[1]; 60 min,2.51 %ID/g
same,"Biological distribution, Small intestines",[1]; 60 min,10.85 %ID/organ
same,"Biological distribution, Spleen",[1]; 60 min,1.46 %ID/g
same,"Biological distribution, Stomach",[1]; 60 min,2.20 %ID/organ
same,"Biological distribution, Thyroid",[1]; 60 min,0.10 %ID/organ
same,"Biological distribution, Urine",[1]; 60 min,33.92 %ID/organ
same,"Biological distribution, Blood",[2]; 5 min,1.91 %ID/g
same,"Biological distribution, Brain",[2]; 5 min,0.71 %ID/g
same,"Biological distribution, Gallbladder",[2]; 5 min,2.39 %ID/g
same,"Biological distribution, Heart",[2]; 5 min,5.73 %ID/g
same,"Biological distribution, Kidney",[2]; 5 min,21.72 %ID/g
same,"Biological distribution, Large intestines",[2]; 5 min,1.19 %ID/organ
same,"Biological distribution, Liver",[2]; 5 min,5.66 %ID/g
same,"Biological distribution, Lung",[2]; 5 min,29.72 %ID/g
same,"Biological distribution, Pancreas",[2]; 5 min,8.93 %ID/g
same,"Biological distribution, Small intestines",[2]; 5 min,6.06 %ID/organ
same,"Biological distribution, Spleen",[2]; 5 min,6.61 %ID/g
same,"Biological distribution, Stomach",[2]; 5 min,2.37 %ID/organ
same,"Biological distribution, Thyroid",[2]; 5 min,0.05 %ID/organ
same,"Biological distribution, Urine",[2]; 5 min,2.10 %ID/organ
same,"Biological distribution, Blood",[2]; 15 min,1.71 %ID/g
same,"Biological distribution, Brain",[2]; 15 min,0.80 %ID/g
same,"Biological distribution, Gallbladder",[2]; 15 min,5.43 %ID/g
same,"Biological distribution, Heart",[2]; 15 min,3.93 %ID/g
same,"Biological distribution, Kidney",[2]; 15 min,19.74 %ID/g
same,"Biological distribution, Large intestines",[2]; 15 min,1.00 %ID/organ
same,"Biological distribution, Liver",[2]; 15 min,4.72 %ID/g
same,"Biological distribution, Lung",[2]; 15 min,21.72 %ID/g
same,"Biological distribution, Pancreas",[2]; 15 min,5.94 %ID/g
same,"Biological distribution, Small intestines",[2]; 15 min,6.37 %ID/organ
same,"Biological distribution, Spleen",[2]; 15 min,6.35 %ID/g
same,"Biological distribution, Stomach",[2]; 15 min,2.34 %ID/organ
same,"Biological distribution, Thyroid",[2]; 15 min,0.05 %ID/organ
same,"Biological distribution, Urine",[2]; 15 min,5.25 %ID/organ
same,"Biological distribution, Blood",[2]; 30 min,1.44 %ID/g
same,"Biological distribution, Brain",[2]; 30 min,0.74 %ID/g
same,"Biological distribution, Gallbladder",[2]; 30 min,9.16 %ID/g
same,"Biological distribution, Heart",[2]; 30 min,2.34 %ID/g
same,"Biological distribution, Kidney",[2]; 30 min,15.65 %ID/g
same,"Biological distribution, Large intestines",[2]; 30 min,1.00 %ID/organ
same,"Biological distribution, Liver",[2]; 30 min,5.03 %ID/g
same,"Biological distribution, Lung",[2]; 30 min,11.31 %ID/g
same,"Biological distribution, Pancreas",[2]; 30 min,23.69 %ID/g
same,"Biological distribution, Small intestines",[2]; 30 min,7.71 %ID/organ
same,"Biological distribution, Spleen",[2]; 30 min,4.03 %ID/g
same,"Biological distribution, Stomach",[2]; 30 min,2.24 %ID/organ
same,"Biological distribution, Thyroid",[2]; 30 min,0.09 %ID/organ
same,"Biological distribution, Urine",[2]; 30 min,5.63 %ID/organ
same,"Biological distribution, Blood",[2]; 60 min,0.65 %ID/g
same,"Biological distribution, Brain",[2]; 60 min,0.52 %ID/g
same,"Biological distribution, Gallbladder",[2]; 60 min,20.14 %ID/g
same,"Biological distribution, Heart",[2]; 60 min,0.96 %ID/g
same,"Biological distribution, Kidney",[2]; 60 min,9.60 %ID/g
same,"Biological distribution, Large intestines",[2]; 60 min,0.68 %ID/organ
same,"Biological distribution, Liver",[2]; 60 min,2.12 %ID/g
same,"Biological distribution, Lung",[2]; 60 min,5.81 %ID/g
same,"Biological distribution, Pancreas",[2]; 60 min,2.77 %ID/g
same,"Biological distribution, Small intestines",[2]; 60 min,10.07 %ID/organ
same,"Biological distribution, Spleen",[2]; 60 min,1.94 %ID/g
same,"Biological distribution, Stomach",[2]; 60 min,1.90 %ID/organ
same,"Biological distribution, Thyroid",[2]; 60 min,0.11 %ID/organ
same,"Biological distribution, Urine",[2]; 60 min,2.01 %ID/organ
same,metabolites of 125I-ODV present in bile,[3]; gallbladders collected 60 min after injection,more than 99%
same,fraction of 125I-ODV in bile,[3]; [4],not found
same,fractional ratio of the metabolite in bile,[3]; [4],more than 99%
